Assay results: BindingDB's records for doi:10.7270/Q2251GJ9 (The Scripps Research Institute Molecular Screening Center, 2007)
pEC50: −log10 of the molar value. Where a name gives a salt, the structure may show the parent alone.

Each molecule was assayed against Sphingosine 1-phosphate receptor 1 (Homo sapiens, UniProt P21453) (assay: direct activation of human S1P1 – cell-based, agonist mode, 60K MLSMR set, dose response (AID 468)). Settings: not given.
Sphingosine 1-phosphate receptor 1, sequence (P21453 whole entry): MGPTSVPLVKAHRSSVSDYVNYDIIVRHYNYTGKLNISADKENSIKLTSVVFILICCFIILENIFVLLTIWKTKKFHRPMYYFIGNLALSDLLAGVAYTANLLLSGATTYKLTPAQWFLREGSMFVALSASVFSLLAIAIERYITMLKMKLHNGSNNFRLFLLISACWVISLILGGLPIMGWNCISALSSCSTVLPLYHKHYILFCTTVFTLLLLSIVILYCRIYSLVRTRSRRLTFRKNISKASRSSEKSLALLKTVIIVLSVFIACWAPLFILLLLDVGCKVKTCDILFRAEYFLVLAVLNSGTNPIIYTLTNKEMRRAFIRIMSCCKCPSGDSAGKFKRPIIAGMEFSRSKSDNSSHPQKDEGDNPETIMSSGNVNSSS
Cc1cc(C(=O)CC#N)c(C)n1-c1ccc(OC(F)F)cc1 [3-[1-[4-(difluoromethoxy)phenyl]-2,5-dimethyl-3-pyrrolyl]-3-oxopropanenitrile] gave a pEC50 of under 5.00. With Cc1[nH]nc2c1C1(C(=O)N(Cc3ccc(Cl)cc3)c3ccccc31)C(C#N)C(=N)O2 (stereo unspecified) [6-amino-1'-[(4-chlorophenyl)methyl]-3-methyl-2'-oxo-5-spiro[2H-pyrano[2,3-c]pyrazole-4,3'-indole]carbonitrile] the pEC50 was 4.24. Molecule CCOC(=O)c1c(C)[nH]c(C(=O)C(C)OC(=O)c2cccc(OCc3c(C)noc3C)c2)c1C (stereo unspecified) [MLS000054923] has a pEC50 of 5.36. Cc1occc1C(=O)N1CCN(c2ccc(Cl)c(Cl)c2)CC1 [1-(3,4-dichlorophenyl)-4-(2-methyl-3-furoyl)piperazine] was tested, and the pEC50 was 5.35. O=C(c1cc(-c2ccccc2)on1)N1CCN(Cc2ccc3c(c2)OCO3)CC1 [(5-phenylisoxazol-3-yl)-(4-piperonylpiperazino)methanone] was tested, and the pEC50 was under 4.52. Molecule O=C(Nc1cccc(C(F)(F)F)c1)C1CCCN1S(=O)(=O)c1cccc2cccnc12 (stereo unspecified) [1-(8-quinolinylsulfonyl)-N-[3-(trifluoromethyl)phenyl]-2-pyrrolidinecarboxamide] has a pEC50 of 5.32. Molecule Cc1sc2ncnc(Sc3nnnn3-c3ccccc3)c2c1C [5,6-dimethyl-4-(1-phenyltetrazol-5-yl)sulfanylthieno[2,3-d]pyrimidine] has a pEC50 of under 4.02. Molecule Cc1csc(NC(=O)C(Cc2ccccc2)n2cccc2)n1 (stereo unspecified) [MLS000119019] has a pEC50 of 5.56. With CCCCn1nnnc1SCC(=O)c1ccc(C)c(C)c1 [2-(1-Butyl-1H-tetrazol-5-ylsulfanyl)-1-(3,4-dimethyl-phenyl)-ethanone] the pEC50 was 5.22. With COc1ccc(NC(=O)c2cc(-c3cccs3)on2)cc1OC [MLS000087261] the pEC50 was 5.24. Work on Cc1cc(N2CCN(c3nc4ccccc4s3)CC2)n2ncnc2n1 [2-[4-(5-methyl-[1,2,4]triazolo[1,5-a]pyrimidin-7-yl)-1-piperazinyl]-1,3-benzothiazole] yielded a pEC50 of 5.10. COC(=O)c1ccc2c(=O)n(C3CCCCC3)c(SCC#N)nc2c1 [2-(cyanomethylthio)-3-cyclohexyl-4-keto-quinazoline-7-carboxylic acid methyl ester] gave a pEC50 of 5.00. Cc1nc2ccc3nc(NC(=O)C4COc5ccccc5O4)sc3c2s1 (stereo unspecified) [MLS000100909] gave a pEC50 of 5.31. Molecule Clc1ccc(OCCN2CCN(c3ncnc4sccc34)CC2)cc1 [4-[4-[2-(4-chloranylphenoxy)ethyl]piperazin-1-yl]thieno[2,3-d]pyrimidine] has a pEC50 of 6.97. With Cc1ccccc1CS(=O)(=O)c1nnc([C@H](CC(C)C)NC(=O)OC(C)(C)C)o1 [SMR000044673] the pEC50 was 5.12. In the case of COc1ccc(-c2nc(-c3ccncc3)no2)cc1OC [5-(3,4-dimethoxyphenyl)-3-(4-pyridyl)-1,2,4-oxadiazole], the pEC50 was 5.73. Work on O=C(c1ccc(Cl)s1)N1CCN(c2nc3ccccc3s2)CC1 [MLS000100900] yielded a pEC50 of under 4.52. c1ccc(N2CCN(Cc3ccnc4ccccc34)CC2)cc1 [4-[(4-phenyl-1-piperazinyl)methyl]quinoline] gave a pEC50 of 5.03. Cc1cc(C=c2sc3nc4ccccc4n3c2=O)c(C)n1-c1ccccn1 [2-[(2,5-dimethyl-1-pyridin-2-yl-pyrrol-3-yl)methylidene]-[1,3]thiazolo[3,2-a]benzimidazol-1-one] was tested, and the pEC50 was 6.88. OCC12C=CC(O1)c1c2c(O)n(-c2ccccc2-c2ccccc2)c1O (stereo unspecified) [7-(hydroxymethyl)-2-(2-phenylphenyl)-4,7a-dihydro-3aH-octahydro-1H-4,7-epoxyisoindole-1,3-dione] was tested, and the pEC50 was 5.26. Work on CCc1cc(-c2n[nH]cc2-c2ccc3c(c2)OCO3)c(O)cc1O [SMR000060132] yielded a pEC50 of 5.22. Molecule O=C(CSc1nnc(-c2cc3ccccc3cc2O)n1Cc1ccco1)c1ccc(F)cc1 [(3Z)-3-[3-[2-(4-fluorophenyl)-2-oxidanylidene-ethyl]sulfanyl-4-(furan-2-ylmethyl)-1H-1,2,4-triazol-5-ylidene]naphthalen-2-one] has a pEC50 of 4.70. Work on COc1ccc(C(=O)C(CN2CCOCC2)c2ccccc2)cc1F (stereo unspecified) [1-(3-Fluoro-4-methoxy-phenyl)-3-morpholin-4-yl-2-phenyl-propan-1-one] yielded a pEC50 of 4.65. For CCOc1ccc(-c2noc(-c3cccnc3)n2)cc1OC [3-(4-ethoxy-3-methoxy-phenyl)-5-(3-pyridyl)-1,2,4-oxadiazole], the pEC50 was 5.92. CCn1nc(-c2cccs2)nc2c(=O)n(C)c(=O)nc1-2 [1-ethyl-6-methyl-3-thiophen-2-yl-pyrimido[5,4-e][1,2,4]triazine-5,7-dione] gave a pEC50 of under 5.00. Molecule Cc1cc(-c2nnc(-c3ccccc3)c(-c3ccccc3)n2)c(C)o1 [3-(2,5-dimethyl-3-furanyl)-5,6-diphenyl-1,2,4-triazine] has a pEC50 of 5.53. Cc1nn(Cc2ccc(Cl)c(Cl)c2)c(C)c1NC(=O)c1cc(-c2ccco2)on1 [MLS000087229] gave a pEC50 of 5.25. With Cc1ccccc1-c1noc(-c2ccc(O)cc2)n1 [4-[3-(2-methylphenyl)-2H-1,2,4-oxadiazol-5-ylidene]-1-cyclohexa-2,5-dienone] the pEC50 was 5.07. Molecule CN(C)CC(C(=O)c1ccccc1)c1ccccc1 (stereo unspecified) [3-(dimethylamino)-1,2-diphenyl-1-propanone;hydrochloride] has a pEC50 of 5.01. Molecule Cc1ccc(S(=O)(=O)Nc2cccc3ncccc23)s1 [5-methyl-N-quinolin-5-ylthiophene-2-sulfonamide] has a pEC50 of 5.02. With O=S1(=O)C=C(Sc2nc3ccccc3s2)c2ccccc21 [2-[(1,1-dioxido-1-benzothien-3-yl)thio]-1,3-benzothiazole] the pEC50 was 5.11. COC(=O)c1sc(NC(=O)c2ccc(OC)cc2OC)nc1C [2-[(2,4-dimethoxybenzoyl)amino]-4-methyl-thiazole-5-carboxylic acid methyl ester] gave a pEC50 of 5.02. For CCc1nnc(NC(=O)C2CCCCC2)s1 [MLS000104554], the pEC50 was under 4.02.

Same assay, conditions: inactive by the depositor's call
CC(=O)N1C=CN(C(C)=O)C(c2cn(C)c3ccccc23)C1c1cn(C)c2ccccc12 (stereo unspecified) [1-[4-acetyl-2,3-bis(1-methyl-3-indolyl)-2,3-dihydropyrazin-1-yl]ethanone] gave a pEC50 of 4.58. In the case of CCOc1ccccc1COC(=O)c1cccc(-n2cnnn2)c1 [(2-ethoxyphenyl)methyl 3-(1,2,3,4-tetrazol-1-yl)benzoate], the pEC50 was 4.64. Work on CCCC(=O)c1ccc(N2CCN(C(=O)c3ccccc3Br)CC2)c(F)c1 [1-[4-[4-(2-bromobenzoyl)piperazin-1-yl]-3-fluorophenyl]butan-1-one] yielded a pEC50 of 4.93. Cc1cccc(-c2nc(C#N)c(NC3CCCCC3)o2)c1 [5-(cyclohexylamino)-2-(3-methylphenyl)-1,3-oxazole-4-carbonitrile] showed a pEC50 of 4.87. O=C(CSc1nnc(-c2ccc(Cl)cc2)n1Cc1ccco1)c1cccs1 [2-[[5-(4-chlorophenyl)-4-(2-furanylmethyl)-1,2,4-triazol-3-yl]thio]-1-thiophen-2-ylethanone] showed a pEC50 of 4.76. Cn1nc(CC(=O)Nc2ccc(N3CCN(C(=O)OC(C)(C)C)CC3)cc2)c2ccccc2c1=O [4-[4-[[2-(3-methyl-4-oxo-1-phthalazinyl)-1-oxoethyl]amino]phenyl]-1-piperazinecarboxylic acid tert-butyl ester] gave a pEC50 of 4.88. CCOC(=O)C1CCN(c2ncnc3c2oc2ccccc23)CC1 [1-(4-benzofuro[3,2-d]pyrimidinyl)-4-piperidinecarboxylic acid ethyl ester] was tested, and the pEC50 was 4.92. For O=c1oc2cc(Br)ccc2n1CSC1=NCCS1 [6-Bromo-3-(4,5-dihydro-thiazol-2-ylsulfanylmethyl)-3H-benzooxazol-2-one], the pEC50 was 4.89.
